Source: publication PMC9941834, “Histidine supplementation can escalate or rescue HARS deficiency in a Charcot–Marie–Tooth disease model” (Human Molecular Genetics, 2022)
Changes are numbered by the printed parent chain.

Assays:
Assay in all cases: differential scanning fluorimetry (thermal shift)
Format in all cases: binding
[1] = molecular target: T1, hsHARS (human histidyl-tRNA synthetase, HARS) (Homo sapiens, UniProt P12081, V133F); details: 500 μM ATP, 1 μM protein; apo mutant TM 52 ± 1.2 °C
T1 construct: gene HARS1; hsHARS gene in pDest527, 6x-His tag, E. coli BL21 Codon Plus, Ni-NTA purified; dimeric protein
T1 sequence (P12081 1-509 V133F): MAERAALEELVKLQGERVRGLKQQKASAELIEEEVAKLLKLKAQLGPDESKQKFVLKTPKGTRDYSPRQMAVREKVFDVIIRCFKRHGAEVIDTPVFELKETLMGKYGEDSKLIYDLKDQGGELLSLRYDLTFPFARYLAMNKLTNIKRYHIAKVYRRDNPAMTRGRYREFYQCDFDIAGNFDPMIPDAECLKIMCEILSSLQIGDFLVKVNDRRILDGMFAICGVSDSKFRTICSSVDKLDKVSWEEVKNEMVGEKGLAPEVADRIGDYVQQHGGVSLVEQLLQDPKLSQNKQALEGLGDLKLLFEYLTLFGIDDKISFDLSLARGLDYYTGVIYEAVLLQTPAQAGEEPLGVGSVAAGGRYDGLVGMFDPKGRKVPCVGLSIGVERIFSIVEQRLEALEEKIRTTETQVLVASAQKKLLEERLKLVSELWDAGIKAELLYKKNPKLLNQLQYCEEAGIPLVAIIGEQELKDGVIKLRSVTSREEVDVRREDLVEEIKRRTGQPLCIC
From the text: differential scanning fluorimetry (thermal shift) on hsHARS (human histidyl-tRNA synthetase, HARS) | high ATP concentrations increase the thermal stability of HARS V133F to wild-type levels

[2] = molecular target: T2, hsHARS (human histidyl-tRNA synthetase, HARS) (Homo sapiens, UniProt P12081, V155G); details: 1 μM protein, apo mutant TM 59.8 ± 0.7 °C
T2 construct: gene HARS1; hsHARS gene in pDest527, 6x-His tag, E. coli BL21 Codon Plus, Ni-NTA purified; dimeric protein
T2 sequence (P12081 1-509 V155G): T1 sequence (P12081 1-509 V133F) with F133V, V155G
From the text: (§1) differential scanning fluorimetry (thermal shift) on […]

[3] = molecular target: T3, hsHARS (human histidyl-tRNA synthetase, HARS) (Homo sapiens, UniProt P12081, Y454S); details: 1 μM protein, apo mutant TM 50 ± 1.8 °C
T3 construct: gene HARS1; hsHARS gene in pDest527, 6x-His tag, E. coli BL21 Codon Plus, Ni-NTA purified; dimeric protein
T3 sequence (P12081 1-509 Y454S): T1 sequence (P12081 1-509 V133F) with F133V, Y454S
From the text: as §1

TM [1] [°C]	TM ([3]; 1 mM histidine) [°C]	SMILES	TM ([2]; 500 μM ATP)	TM ([3]; 500 μM ATP)	TM ([2]; 1 mM histidine)
63 ± 1.9		Nc1ncnc2c1ncn2[C@@H]1O[C@H](COP(=O)(O)OP(=O)(O)OP(=O)(O)O)[C@@H](O)[C@H]1O [ATP]	all substrate supplementations restored wild-type like levels of protein stability	The addition of tRNA or ATP alone or in combination slightly increased stability	
	57.8 ± 0.8	N[C@@H](Cc1cnc[nH]1)C(=O)O [histidine]			all substrate supplementations restored wild-type like levels of protein stability
